Publication PMC9389588, “1,6-epi-Cyclophellitol Cyclosulfamidate Is a Bona Fide Lysosomal α-Glucosidase Stabilizer for the Treatment of Pompe Disease” (Journal of the American Chemical Society, 2022)

Columns and labels:
β-glucosidase GBA2 = target: T1, β-glucosidase GBA2 (Homo sapiens, UniProt Q9HCG7); test: in vitro apparent IC50, GBA2-overexpressing HEK293T lysate; format: biochemical; details: apparent IC50, pH 5.8, mean ± SD
T1 construct: expressed in transfected cells; host or cells: HEK293T
T1 sequence (Q9HCG7 1-927): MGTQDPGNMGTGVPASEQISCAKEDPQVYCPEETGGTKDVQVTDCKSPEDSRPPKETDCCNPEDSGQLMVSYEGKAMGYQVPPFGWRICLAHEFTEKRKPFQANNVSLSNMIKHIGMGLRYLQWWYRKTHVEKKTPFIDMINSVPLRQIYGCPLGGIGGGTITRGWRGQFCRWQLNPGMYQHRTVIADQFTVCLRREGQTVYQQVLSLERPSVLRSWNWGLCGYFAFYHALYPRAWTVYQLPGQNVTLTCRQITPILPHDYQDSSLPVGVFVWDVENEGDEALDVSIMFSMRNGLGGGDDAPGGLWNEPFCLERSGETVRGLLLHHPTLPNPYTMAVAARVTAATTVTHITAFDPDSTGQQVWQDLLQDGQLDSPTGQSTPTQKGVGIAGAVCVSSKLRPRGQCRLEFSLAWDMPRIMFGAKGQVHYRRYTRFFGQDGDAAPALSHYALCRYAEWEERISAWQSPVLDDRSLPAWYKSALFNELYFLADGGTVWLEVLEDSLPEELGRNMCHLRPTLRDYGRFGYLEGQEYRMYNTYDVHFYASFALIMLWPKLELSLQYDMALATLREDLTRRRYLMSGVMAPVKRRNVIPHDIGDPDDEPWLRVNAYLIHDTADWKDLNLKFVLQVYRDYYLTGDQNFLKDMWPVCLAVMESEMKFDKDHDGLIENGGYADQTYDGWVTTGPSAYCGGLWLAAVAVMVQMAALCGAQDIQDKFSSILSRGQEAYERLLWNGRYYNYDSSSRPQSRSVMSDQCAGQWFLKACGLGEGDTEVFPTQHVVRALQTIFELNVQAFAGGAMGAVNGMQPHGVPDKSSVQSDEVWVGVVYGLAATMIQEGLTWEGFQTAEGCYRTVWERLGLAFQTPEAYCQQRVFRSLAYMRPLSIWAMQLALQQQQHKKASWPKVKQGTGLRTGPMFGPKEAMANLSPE

rhGAA (Myozyme) [1] = target: T2, rhGAA (Myozyme) (Homo sapiens, UniProt P10253); test: time-dependent inhibition of GAA; format: biochemical; details: preincubation 15-240 min at apparent IC50 concentration
T2 construct: purchased Sanofi Genzyme
Procedure: 2.1 Biochemical and Biological Methods
2.1.1 In vitro apparent IC50 experiments
To determine in vitro apparent IC50 values, 40 μL of enzyme-mixture was pre-incubated with 40 μL of inhibitor for […]
and 2% DMSO (v/v). GANAB in 150 mM McIlvaine buffer pH 7.0, 0.1% BSA (w/v) and 2% DMSO (v/v). GBA1 in 150 mM McIlvaine buffer pH 5.2, 0.2% Taurocholate (w/v), 0.1% Triton X-100 (v/v), 0.1% BSA (w/v), 2% DMSO (v/v). GBA2 in 150 mM McIlvaine pH 5.8, 0.1% BSA (w/v).
After preincubation, 25 μL of E+I mixture was added to a 96 wells plate and 100 μL substrate solution in the appropriate buffer was subsequently added. GAA activity was measured using final concentrations of 47 nM enzyme (Myozyme) and 3.0 mM 4-MU-α-D-glucopyranoside, for 30 minutes at 37 ℃. GANAB activity was measured using wt fibroblasts and 2.4 mM 4-MU-α-D-glucopyranoside, for 2 h at 37 ℃. GBA1 activity was measured using final concentrations of 0.7 nM enzyme (Cerezyme) and 3.0 mM 4-methylumbeliferone(4-MU)-β-D-glucopyranoside, for 30 min at 37 ℃. GBA2 residual activity was measured using cellular homogenates of HEK293T over-expressing GBA2 pre-incubated for 30 min with a GBA1 inhibitor (1 µM 37 (ME656), see Figure S1 for chemical structure), and further incubation with 3.0 mM 4-methylumbeliferone(4MU)-β-D-glucopyranoside […]

rhGAA (Myozyme) [2] = target: T2, rhGAA (Myozyme); test: thermostability assay of Myozyme, Tycho NT.6; format: binding
[3] = target: α-glucosidase GAA (Myozyme) (Homo sapiens, UniProt P10253); test: in vitro apparent IC50, GAA (Myozyme), 4-MU-α-D-glucopyranoside; format: biochemical; set-up: purchased Sanofi Genzyme; details: Myozyme 47 nM, pH 4.0, 30 min preincubation, mean ± SD

`O=S1(=O)N[C@@H]2[C@H](O)[C@@H](O)[C@H](O)[C@@H](CO)[C@@H]2O1` [compound 4, 1,6-epi-cyclophellitol cyclosulfamidate] was tested, and the IC50 (β-glucosidase GBA2) was > 500 µM, the type of inhibition (rhGAA (Myozyme) [1]) was “competitive manner” and the “maximum shift in inflection temperature (ΔTimax)” value (rhGAA (Myozyme) [2]; Myozyme 1 μM, 0-20 μM compound, pH 6.5) was 11.2 °C. It also gave an EC50 (rhGAA (Myozyme) [2]; Myozyme 1 μM, 0-20 μM compound, pH 6.5, read-out: EC50 of thermal stabilization) of 1.16 µM and an IC50 [3] of 5.17 ± 0.195 µM.
For `O=S1(=O)N[C@H]2[C@H](CO)[C@@H](O)[C@H](O)[C@@H](O)[C@H]2O1` [compound 6], the IC50 (β-glucosidase GBA2) was > 500 µM, the type of inhibition (rhGAA (Myozyme) [1]) was “irreversible inhibitor” and the “effect on rhGAA thermostability, in words” value (rhGAA (Myozyme) [2]; increasing temperature) was “does not prevent enzyme unfolding”. The IC50 [3] was 112 ± 2.54 µM.
